Patent US20240270762A1, “PENICILLIN-BINDING PROTEIN INHIBITORS” (priority 2021, published 2024)
In brackets after ≈: the same amount, converted by molar mass.

Experiments:
[1] = molecular target: T1, PBP3 from Escherichia coli (K-12) (Escherichia coli, UniProt P0AD68); test: Bocillin-FL fluorescence polarization competition binding, E. coli PBP3
T1 construct: made in house
How it was run: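 Purified PBP was preincubated with inhibitor (E. coli PBP3 1.5 μM, 30 min; P. aeruginosa PBP3 0.75 μM, A. baumannii PBP3 0.2 μM and PBP1a 1 μM, 15 min), then Bocillin-FL (0.1 μM; 0.05 μM for PBP1a) added and FP read up to 60 min. EC50 = 50% loss of bound probe.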

[2] = test system: E. coli AG100; test: microbe, parasite or virus in culture; assay type: cell-based; settings: Escherichia coli, AG100, read-out: MIC E. coli AG100
[3] = test system: E. coli D22; test: microbe, parasite or virus in culture; assay type: cell-based; settings: Escherichia coli, D22, read-out: MIC E. coli D22
[4] = test system: E. coli AG100A; test: Broth microdilution MIC in CAMHB; assay type: cell-based; settings: Escherichia coli, read-out: MIC E. coli AG100A
[5] = test system: K. pneumoniae 848844; test: microbe, parasite or virus in culture; assay type: cell-based; settings: Klebsiella pneumoniae, 848844, read-out: MIC K. pneumoniae 848844
[6] = test system: K. pneumoniae SI-117; test: microbe, parasite or virus in culture; assay type: cell-based; settings: Klebsiella pneumoniae, SI117, read-out: MIC K. pneumoniae SI-117
[7] = test system: A. baumannii ATCC 19606; test: microbe, parasite or virus in culture; assay type: cell-based; settings: Acinetobacter baumannii, ATCC19606, read-out: MIC, A. baumannii ATCC 19606
[8] = test system: P. aeruginosa ATCC 35151; test: microbe, parasite or virus in culture; assay type: cell-based; settings: Pseudomonas aeruginosa, ATCC35151, read-out: MIC P. aeruginosa ATCC 35151
[9] = test system: P. aeruginosa (ΔmexAB-oprM); test: Broth microdilution MIC in CAMHB; assay type: cell-based; settings: Pseudomonas aeruginosa; read-out: MIC P. aeruginosa ΔmexAB-oprM
[10] = test system: N. gonorrhoeae ATCC 49226; test: Liquid broth MIC in Fastidious broth; settings: Neisseria gonorrhoeae, ATCC49226, read-out: Minimum Inhibitory Concentration (MIC), N. gonorrhoeae ATCC 49226
[11] = test system: N. gonorrhoeae FA1090; test: Liquid broth MIC in Fastidious broth; settings: Neisseria gonorrhoeae, FA1090, read-out: Minimum Inhibitory Concentration (MIC), N. gonorrhoeae FA 1090
[12] = test system: N. gonorrhoeae WHO G; test: Liquid broth MIC in Fastidious broth; settings: Neisseria gonorrhoeae, read-out: Minimum Inhibitory Concentration (MIC), N. gonorrhoeae WHO G
[13] = test system: N. gonorrhoeae WHO L; test: Liquid broth MIC in Fastidious broth; settings: Neisseria gonorrhoeae, read-out: Minimum Inhibitory Concentration (MIC), N. gonorrhoeae WHO L
[14] = test system: N. gonorrhoeae WHO M; test: Liquid broth MIC in Fastidious broth; settings: Neisseria gonorrhoeae, read-out: Minimum Inhibitory Concentration (MIC), N. gonorrhoeae WHO M
[15] = test system: N. gonorrhoeae WHO X; test: Liquid broth MIC in Fastidious broth; settings: Neisseria gonorrhoeae, read-out: Minimum Inhibitory Concentration (MIC), N. gonorrhoeae WHO X
[16] = test system: N. gonorrhoeae CDC-0197; test: Liquid broth MIC in Fastidious broth; settings: Neisseria gonorrhoeae, CDC0197, read-out: Minimum Inhibitory Concentration (MIC), N. gonorrhoeae CDC-0197

T1 sequence (P0AD68 1-577): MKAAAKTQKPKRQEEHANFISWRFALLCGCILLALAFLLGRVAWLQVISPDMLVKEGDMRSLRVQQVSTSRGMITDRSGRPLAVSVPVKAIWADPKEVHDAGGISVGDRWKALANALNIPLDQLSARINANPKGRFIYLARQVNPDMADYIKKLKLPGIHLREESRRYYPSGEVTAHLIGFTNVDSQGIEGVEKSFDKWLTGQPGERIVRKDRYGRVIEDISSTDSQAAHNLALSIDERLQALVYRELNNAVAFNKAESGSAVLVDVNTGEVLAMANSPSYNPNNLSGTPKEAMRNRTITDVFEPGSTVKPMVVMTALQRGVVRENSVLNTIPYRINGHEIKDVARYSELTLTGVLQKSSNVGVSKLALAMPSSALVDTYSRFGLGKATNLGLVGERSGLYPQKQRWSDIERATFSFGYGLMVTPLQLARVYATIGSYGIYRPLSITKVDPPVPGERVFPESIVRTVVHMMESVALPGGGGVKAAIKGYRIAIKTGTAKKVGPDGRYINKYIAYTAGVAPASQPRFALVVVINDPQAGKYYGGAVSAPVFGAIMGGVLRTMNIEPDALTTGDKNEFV

SMILES: NS(=O)(=O)NC(C(=O)N[C@H]1Cc2cccc(C(=O)O)c2OB1O)c1ccc(P(=O)(O)O)cc1 (stereo partly drawn) [Example 58, (3R)-2-hydroxy-3-(2-(4-phosphonophenyl)-2-(sulfamoylamino)acetamido)-3,4-dihydro-2H-benzo[e][1,2]oxaborinine-8-carboxylic acid]
- EC50 [1]: > 250 µM
- MIC [2]: > 128 µg/mL
- MIC [3]: > 128 µg/mL
- MIC [4]: > 128 µg/mL
- MIC [5]: > 128 µg/mL
- MIC [6]: > 128 µg/mL
- MIC [7]: > 128 µg/mL
- MIC [8]: > 128 µg/mL
- MIC [9]: > 128 µg/mL
- MIC [10]: 16 to 32 µg/mL (≈ 32.1 to 64.1 µM)
- MIC [11]: 16 to 32 µg/mL (≈ 32.1 to 64.1 µM)
- MIC [12]: 16 to 32 µg/mL (≈ 32.1 to 64.1 µM)
- MIC [13]: 16 to 32 µg/mL (≈ 32.1 to 64.1 µM)
- MIC [14]: 16 to 32 µg/mL (≈ 32.1 to 64.1 µM)
- MIC [15]: 16 to 32 µg/mL (≈ 32.1 to 64.1 µM)
- MIC [16]: 16 to 32 µg/mL (≈ 32.1 to 64.1 µM)

SMILES: CS(=O)(=O)NC(C(=O)N[C@H]1Cc2cccc(C(=O)O)c2OB1O)c1ccc(P(=O)(O)O)cc1 (stereo partly drawn) [Example 59, (3R)-2-hydroxy-3-(2-(methylsulfonamido)-2-(4-phosphonophenyl)acetamido)-3,4-dihydro-2H-benzo[e][1,2]oxaborinine-8-carboxylic acid]
- EC50 [1]: > 250 µM
- MIC [2]: > 128 µg/mL
- MIC [3]: > 128 µg/mL
- MIC [4]: > 128 µg/mL
- MIC [5]: > 128 µg/mL
- MIC [6]: > 128 µg/mL
- MIC [7]: > 128 µg/mL
- MIC [8]: 32 to 64 µg/mL (≈ 64.2 to 128 µM)
- MIC [9]: > 128 µg/mL
- MIC [10]: 16 to 32 µg/mL (≈ 32.1 to 64.2 µM)
- MIC [11]: 16 to 32 µg/mL (≈ 32.1 to 64.2 µM)
- MIC [12]: 16 to 32 µg/mL (≈ 32.1 to 64.2 µM)
- MIC [13]: 16 to 32 µg/mL (≈ 32.1 to 64.2 µM)
- MIC [14]: 4 to 8 µg/mL (≈ 8.03 to 16.1 µM)
- MIC [15]: 16 to 32 µg/mL (≈ 32.1 to 64.2 µM)
- MIC [16]: 16 to 32 µg/mL (≈ 32.1 to 64.2 µM)

SMILES: CC(C)S(=O)(=O)NC(C(=O)N[C@H]1Cc2cccc(C(=O)O)c2OB1O)c1ccc(P(=O)(O)O)cc1 (stereo partly drawn) [Example 60, (3R)-2-hydroxy-3-(2-((1-methylethyl)sulfonamido)-2-(4-phosphonophenyl)acetamido)-3,4-dihydro-2H-benzo[e][1,2]oxaborinine-8-carboxylic acid]
- EC50 [1]: > 250 µM
- MIC [2]: > 128 µg/mL
- MIC [3]: > 128 µg/mL
- MIC [4]: > 128 µg/mL
- MIC [5]: > 128 µg/mL
- MIC [6]: > 128 µg/mL
- MIC [7]: > 128 µg/mL
- MIC [8]: 32 to 64 µg/mL (≈ 60.8 to 122 µM)
- MIC [9]: > 128 µg/mL
- MIC [10]: 16 to 32 µg/mL (≈ 30.4 to 60.8 µM)
- MIC [11]: 4 to 8 µg/mL (≈ 7.6 to 15.2 µM)
- MIC [12]: 16 to 32 µg/mL (≈ 30.4 to 60.8 µM)
- MIC [13]: 16 to 32 µg/mL (≈ 30.4 to 60.8 µM)
- MIC [14]: 4 to 8 µg/mL (≈ 7.6 to 15.2 µM)
- MIC [15]: 16 to 32 µg/mL (≈ 30.4 to 60.8 µM)
- MIC [16]: 16 to 32 µg/mL (≈ 30.4 to 60.8 µM)

SMILES: O=C(O)c1cccc2c1OB(O)[C@@H](NC(=O)C(NS(=O)(=O)C1CC1)c1ccc(P(=O)(O)O)cc1)C2 (stereo partly drawn) [Example 61, (3R)-3-(2-(cyclopropanesulfonamido)-2-(4-phosphonophenyl)acetamido)-2-hydroxy-3,4-dihydro-2H-benzo[e][1,2]oxaborinine-8-carboxylic acid]
- EC50 [1]: 50 to 250 µM
- MIC [2]: > 128 µg/mL
- MIC [3]: > 128 µg/mL
- MIC [4]: > 128 µg/mL
- MIC [5]: > 128 µg/mL
- MIC [6]: > 128 µg/mL
- MIC [7]: > 128 µg/mL
- MIC [8]: 32 to 64 µg/mL (≈ 61 to 122 µM)
- MIC [9]: > 128 µg/mL
- MIC [10]: 16 to 32 µg/mL (≈ 30.5 to 61 µM)
- MIC [11]: 16 to 32 µg/mL (≈ 30.5 to 61 µM)
- MIC [12]: 16 to 32 µg/mL (≈ 30.5 to 61 µM)
- MIC [13]: 16 to 32 µg/mL (≈ 30.5 to 61 µM)
- MIC [14]: 16 to 32 µg/mL (≈ 30.5 to 61 µM)
- MIC [15]: 16 to 32 µg/mL (≈ 30.5 to 61 µM)
- MIC [16]: 16 to 32 µg/mL (≈ 30.5 to 61 µM)

SMILES: O=C1CC[C@@H](C(=O)NC(C(=O)N[C@H]2Cc3cccc(C(=O)O)c3OB2O)c2ccc(P(=O)(O)O)cc2)N1 (stereo partly drawn) [Example 64, (3R)-2-hydroxy-3-(2-((S)-5-oxopyrrolidine-2-carboxamido)-2-(4-phosphonophenyl)acetamido)-3,4-dihydro-2H-benzo[e][1,2]oxaborinine-8-carboxylic acid]
- EC50 [1]: 50 to 250 µM
- MIC [2]: > 128 µg/mL
- MIC [3]: 32 to 64 µg/mL (≈ 60.2 to 120 µM)
- MIC [4]: > 128 µg/mL
- MIC [5]: > 128 µg/mL
- MIC [6]: > 128 µg/mL
- MIC [7]: > 128 µg/mL
- MIC [8]: 8 to 16 µg/mL (≈ 15.1 to 30.1 µM)
- MIC [9]: > 128 µg/mL
- MIC [10]: 4 to 8 µg/mL (≈ 7.53 to 15.1 µM)
- MIC [11]: 4 to 8 µg/mL (≈ 7.53 to 15.1 µM)
- MIC [12]: 4 to 8 µg/mL (≈ 7.53 to 15.1 µM)
- MIC [13]: 16 to 32 µg/mL (≈ 30.1 to 60.2 µM)
- MIC [14]: 1 to 2 µg/mL (≈ 1.88 to 3.76 µM)
- MIC [15]: 16 to 32 µg/mL (≈ 30.1 to 60.2 µM)
- MIC [16]: 4 to 8 µg/mL (≈ 7.53 to 15.1 µM)
